{"source": "patent US9951052B2", "about": "“Inhibitors of the renal outer medullary potassium channel” (Merck Sharp & Dohme Corp., priority 2013, dated 2018)", "note": "pIC50: −log10 of the molar value."}
{"target": "T1, hROMK (hKir1.1) (Homo sapiens, UniProt P48048)", "T1 construct": "expressed in transfected cells", "T1 sequence (P48048 1-391)": "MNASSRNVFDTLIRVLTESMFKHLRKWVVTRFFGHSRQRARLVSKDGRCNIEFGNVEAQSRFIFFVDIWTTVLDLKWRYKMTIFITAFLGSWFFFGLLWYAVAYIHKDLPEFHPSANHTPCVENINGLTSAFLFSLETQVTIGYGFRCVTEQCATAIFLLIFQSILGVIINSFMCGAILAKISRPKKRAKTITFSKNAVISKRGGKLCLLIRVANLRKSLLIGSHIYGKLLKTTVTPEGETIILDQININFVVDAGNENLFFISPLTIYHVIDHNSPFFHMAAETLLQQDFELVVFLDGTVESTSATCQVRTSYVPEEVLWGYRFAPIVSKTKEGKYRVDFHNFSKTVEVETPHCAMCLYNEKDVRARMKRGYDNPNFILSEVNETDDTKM", "test": "Thallium Flux Assay (ROMK channel functional thallium flux, FLIPR-Tetra)", "format": "cell-based", "conditions": "HEK293 cells stably expressing hROMK (hKir1.1); 30 min incubation with compound; HCl salt run where final product was an HCl salt", "protocol": "The following Thallium Flux Assay was performed on each of the final product compounds in the Examples. When the final product of an Example was an HCl salt, the salt was run in the Assay.\nCell Culture Conditions—HEK293 cells stably expressing hROMK (hKir1.1) were grown at 37° C. in a 10% CO2 humidified incubator in complete growth media: Dulbecco's Modified Eagle Medium supplemented with non-essential amino acids, Penicillin/Streptomycin/Glutamine, G418 and FBS. At >80% confluency, aspirate the media from the flask and rinse with 10 mL Calcium/Magnesium-free PBS. Add 5 mL of 1× trypsin (prepared in Ca/Mg Free PBS) to T-225 flask and return flask to 37° C./CO2 incubator for 2-3 minutes. To dislodge the cell, gently bang the side of the flask with your hand. Triturate the cells completely and then transfer the cells to 25 mL complete media. Centrifuge at 1,500 rpm for 6 min followed by resuspension in complete growth media and determine cell concentration. For typical re-seeding, 4E6 cells/T-225 flask will attain >80% confluency in 4 days. Under ideal growth conditions and appropriate tissue culture practices, this cell line is stable for 40-45 passages.\nFluxOR Kit Components (Invitrogen F10017)\n• FluxOR™ Reagent (Component A) • FluxOR™ Assay Buffer (Component B)—10× Concentrate • PowerLoad™ Concentrate (Component C)—100× Concentrate • Probenecid (Component D)—Lyophilized sample is kept at −20° C. Water soluble, 100× after solubilization in 1 mL water. Store at 4° C. • FluxOR™ Chloride-free Buffer (Component E)—5× Concentrate • Potassium sulfate (K2SO4) Concentrate (Component F)—125 mM in water. Store at 4° C. • Thallium sulfate (T12SO4) Concentrate (Component G)—50 mM in water. Store at 4° C. • DMSO (dimethyl sulfoxide, Component H)—1 mL (100%) Reagent Preparation: FluxOR Working Solutions • 1000× FluxOR™ Reagent: Reconstitute a vial of component A in 100 μl DMSO; Mix well; Store 10 μl aliquots at −20° C. • 1× FluxOR™ Assay Buffer: Dilute Component B 10-fold with water; Adjust pH to 7.4 with Hepes/NaOH; Filter and store at 4° C. • Probenecid/Assay Buffer: 100 mL of 1× FluxOR™ Assay Buffer; 1 mL of reconstituted component D; Store at 4° C. • Loading Buffer (per microplate): 10 μl 1000× FluxOR™ Reagent; 100 μl component C; 10 mL Probenecid/Assay Buffer • Compound Buffer (per microplate): 20 mL Probenecid/Assay Buffer; 0.3 mM ouabain (10 mM ouabain in water can be stored in amber bottle/aluminum foil at room temperature); Test compound • 1× FluxOR™ Chloride-Free Buffer: Prepare 1× working solution in water. Can be stored at room temperature • Stimulant Buffer (prepared at 5× final concentration in 1× FluxOR™ Chloride-Free Buffer): 7.5 mM Thallium sulfate and 0.75 mM Potassium sulfate (to give a final assay concentration of 3 mM Thallium/0.3 mM Potassium). Store at 4° C. when not in use.\nAssay protocol—The ROMK channel functional thallium flux assay is performed in 384 wells, using the FLIPR-Tetra instrument. HEK-hKir1.1 cells are seeded in Poly-D-Lysine microplates and kept in a 37° C.-10% CO2 incubator overnight. On the day of the experiment, the growth media is replaced with the FluxOR™ reagent loading buffer and incubated, protected from light, at ambient temperature (23-25° C.) for 90 min. The loading buffer is replaced with assay buffer±test compound followed by 30 min incubation at ambient temperature, where the Thallium/Potassium stimulant is added to the microplate.\n• 1. Seed HEK-hKir1.1 cells (50 μl at 20,000 cells/well) in 384-well PDL coated Microplates • 2. Allow cells to adhere overnight in humidified 37° C./10% CO2 incubator • 3. Completely remove cell growth media from microplate and replace with 25 μl loading buffer • 4. Incubate Microplate at room temperature, protected from light, for 90 min • 5. Remove loading buffer and replace with 25 μl 1× Assay Buffer±test compound. • 6. Incubate microplate at room temperature, protected from light, for 30 min • 7. […]"}
{"compound": "Cc1c([C@@H](O)CN2CCC(C(=O)Nc3ccc(-n4cccn4)cc3)CC2)ccc2c1COC2=O", "note": "[Example 23, (R)-N-(4-(1H-pyrazol-1-yl)phenyl)-1-(2-hydroxy-2-(4-methyl-1-oxo-1,3-dihydroisobenzofuran-5-yl)ethyl)piperidine-4-carboxamide]", "pIC50": 7.10}
{"compound": "Cc1c([C@@H](O)CN2CCC(C(=O)Nc3cccc(-n4cnnn4)c3)CC2)ccc2c1COC2=O", "note": "[Example 24, (R)-N-(3-(1H-tetrazol-1-yl)phenyl)-1-(2-hydroxy-2-(4-methyl-1-oxo-1,3-dihydroisobenzofuran-5-yl)ethyl)piperidine-4-carboxamide]", "pIC50": 7.05}
{"compound": "CCOc1cc(NC(=O)C2CCN(C[C@H](O)c3ccc4c(c3C)COC4=O)CC2)ccc1C#N", "note": "[Example 25, (R)-N-(4-cyano-3-ethoxyphenyl)-1-(2-hydroxy-2-(4-methyl-1-oxo-1,3-dihydroisobenzofuran-5-yl)ethyl)piperidine-4-carboxamide]", "pIC50": 6.74}
{"compound": "COc1cc(NC(=O)C2CCN(C[C@H](O)c3ccc4c(c3C)COC4=O)CC2)ccc1C#N", "note": "[Example 26, (R)-N-(4-cyano-3-methoxyphenyl)-1-(2-hydroxy-2-(4-methyl-1-oxo-1,3-dihydroisobenzofuran-5-yl)ethyl)piperidine-4-carboxamide]", "pIC50": 6.82}
{"compound": "Cc1c([C@@H](O)CN2CCC(C(=O)Nc3cnoc3)CC2)ccc2c1COC2=O", "note": "[Example 27, (R)-1-(2-hydroxy-2-(4-methyl-1-oxo-1,3-dihydroisobenzofuran-5-yl)ethyl)-N-(isoxazol-4-yl)piperidine-4-carboxamide]", "pIC50": 6.85}
{"compound": "Cc1c([C@@H](O)CN2CCC(C(=O)Nc3cnsc3)CC2)ccc2c1COC2=O", "note": "[Example 28, (R)-1-(2-hydroxy-2-(4-methyl-1-oxo-1,3-dihydroisobenzofuran-5-yl)ethyl)-N-(isothiazol-4-yl)piperidine-4-carboxamide]", "pIC50": 7.00}
{"compound": "Cc1c([C@@H](O)CN2CCC(C(=O)Nc3nc(C#N)cs3)CC2)ccc2c1COC2=O", "note": "[Example 29, (R)-N-(4-cyanothiazol-2-yl)-1-(2-hydroxy-2-(4-methyl-1-oxo-1,3-dihydroisobenzofuran-5-yl)ethyl)piperidine-4-carboxamide]", "pIC50": 6.62}
{"compound": "Cc1c([C@@H](O)CN2CCC(C(=O)Nc3snc4ccncc34)CC2)ccc2c1COC2=O", "note": "[Example 30, (R)-1-(2-hydroxy-2-(4-methyl-1-oxo-1,3-dihydroisobenzofuran-5-yl)ethyl)-N-(isothiazolo[4,3-c]pyridin-3-yl)piperidine-4-carboxamide]", "pIC50": 7.00}
{"compound": "Cc1nsc(NC(=O)C2CCN(C[C@H](O)c3ccc4c(c3C)COC4=O)CC2)n1", "note": "[Example 31, (R)-1-(2-hydroxy-2-(4-methyl-1-oxo-1,3-dihydroisobenzofuran-5-yl)ethyl)-N-(3-methyl-1,2,4-thiadiazol-5-yl)piperidine-4-carboxamide]", "pIC50": 6.80}
{"compound": "Cc1c([C@@H](O)CN2CCC(C(=O)Nc3nc(C4CC4)ns3)CC2)ccc2c1COC2=O", "note": "[Example 32, (R)-N-(3-cyclopropyl-1,2,4-thiadiazol-5-yl)-1-(2-hydroxy-2-(4-methyl-1-oxo-1,3-dihydroisobenzofuran-5-yl)ethyl)piperidine-4-carboxamide]", "pIC50": 6.52}
{"compound": "Cc1c([C@@H](O)CN2CCC(C(=O)Nc3ccc(-c4csnn4)cc3)CC2)ccc2c1COC2=O", "note": "[Example 33, (R)-N-(4-(1,2,3-thiadiazol-4-yl)phenyl)-1-(2-hydroxy-2-(4-methyl-1-oxo-1,3-dihydroisobenzofuran-5-yl)ethyl)piperidine-4-carboxamide]", "pIC50": 6.77}
{"compound": "Cc1c([C@@H](O)CN2CCC(C(=O)Nc3cncc(F)c3)CC2)ccc2c1COC2=O", "note": "[Example 34, (R)-N-(5-fluoropyridin-3-yl)-1-(2-hydroxy-2-(4-methyl-1-oxo-1,3-dihydroisobenzofuran-5-yl)ethyl)piperidine-4-carboxamide]", "pIC50": 6.47}
{"compound": "Cc1c([C@@H](O)CN2CCC(C(=O)Nc3ccncc3)CC2)ccc2c1COC2=O", "note": "[Example 35, (R)-1-(2-hydroxy-2-(4-methyl-1-oxo-1,3-dihydroisobenzofuran-5-yl)ethyl)-N-(pyridin-4-yl)piperidine-4-carboxamide]", "pIC50": 6.38}
{"compound": "Cc1cc(NC(=O)C2CCN(C[C@H](O)c3ccc4c(c3C)COC4=O)CC2)sn1", "note": "[Example 36, (R)-1-(2-hydroxy-2-(4-methyl-1-oxo-1,3-dihydroisobenzofuran-5-yl)ethyl)-N-(3-methylisothiazol-5-yl)piperidine-4-carboxamide]", "pIC50": 6.92}
{"compound": "Cc1c([C@@H](O)CN2CCC(O)(C(=O)Nc3ccns3)CC2)ccc2c1COC2=O", "note": "[Example 38, (R)-4-hydroxy-1-(2-hydroxy-2-(4-methyl-1-oxo-1,3-dihydroisobenzofuran-5-yl)ethyl)-N-(isothiazol-5-yl)piperidine-4-carboxamide]", "pIC50": 6.96}
{"compound": "Cc1cc(NC(=O)C2(O)CCN(C[C@H](O)c3ccc4c(c3C)COC4=O)CC2)sn1", "note": "[Example 39, (R)-4-hydroxy-1-(2-hydroxy-2-(4-methyl-1-oxo-1,3-dihydroisobenzofuran-5-yl)ethyl)-N-(3-methylisothiazol-5-yl)piperidine-4-carboxamide]", "pIC50": 6.66}
{"compound": "Cc1nsc(NC(=O)C2(O)CCN(C[C@H](O)c3ccc4c(c3C)COC4=O)CC2)n1", "note": "[Example 40, (R)-4-hydroxy-1-(2-hydroxy-2-(4-methyl-1-oxo-1,3-dihydroisobenzofuran-5-yl)ethyl)-N-(3-methyl-1,2,4-thiadiazol-5-yl)piperidine-4-carboxamide]", "pIC50": 6.38}
{"compound": "Cc1c([C@@H](O)CN2CCC(C(=O)N(C)c3ccns3)CC2)ccc2c1COC2=O", "note": "[Example 41, 1-[(2R)-2-hydroxy-2-(4-methyl-1-oxo-1,3-dihydro-2-benzofuran-5-yl)ethyl]-N-(isothiazol-5-yl)-N-methylpiperidine-4-carboxamide]", "pIC50": 8.00}
{"compound": "Cl.[2H]C([2H])([2H])N(C(=O)C1CCN(C[C@H](O)c2ccc3c(c2C)COC3=O)CC1)c1ccns1", "note": "[Example 42, 1-[(2R)-2-hydroxy-2-(4-methyl-1-oxo-1,3-dihydro-2-benzofuran-5-yl)ethyl]-N-(isothiazol-5-yl)-N-trideuteromethylpiperidine-4-carboxamide]", "pIC50": 7.70}
{"compound": "CCN(C(=O)C1CCN(C[C@H](O)c2ccc3c(c2C)COC3=O)CC1)c1ccns1", "note": "[Example 43, (R)-N-ethyl-1-(2-hydroxy-2-(4-methyl-1-oxo-1,3-dihydroisobenzofuran-5-yl)ethyl)-N-(isothiazol-5-yl)piperidine-4-carboxamide]", "pIC50": 7.30}
{"compound": "Cc1cc(N(C)C(=O)C2CCN(C[C@H](O)c3ccc4c(c3C)COC4=O)CC2)sn1", "note": "[Example 44, (R)-1-(2-hydroxy-2-(4-methyl-1-oxo-1,3-dihydroisobenzofuran-5-yl)ethyl)-N-methyl-N-(3-methylisothiazol-5-yl)piperidine-4-carboxamide]", "pIC50": 7.70}
